The text below walks through data of ChEMBL document CHEMBL1130850, “Asymmetric synthesis and anti-HIV activity of L-carbocyclic 2',3'-didehydro-2',3'-dideoxyadenosine” (Bioorg Med Chem Lett, 1998).

The subject of assay [1] is CCRF-CEM. Description: Compound was evaluated for its cytotoxicity against CEM cells. Conditions: Homo sapiens. In kind it is functional, cell-based.
The nature of assay [2]: Compound was evaluated for its cytotoxicity against peripheral blood mononuclear (PBM) cells. In kind it is functional, cell-based. Conditions: Homo sapiens.
A short description of assay [3]: Compound was evaluated for its anti-HIV activity in vitro in peripheral blood mononuclear (PBM) cells. The class given is functional. Conditions: Homo sapiens.
Another assay relates to Vero. Description: Compound was evaluated for its cytotoxicity against vero cells. The settings on record: Chlorocebus sabaeus. The class given is functional, cell-based.
For assay [4], the system named is CCRF-CEM. Description: Compound was evaluated for its cytotoxicity expressed as IC50 against CEM cells. In kind it is functional, cell-based. The settings on record: Homo sapiens.

Turning to `OCC1C=CC(n2cnc3c(S)ncnc32)C1` (stereo unspecified), the IC50 (in the assay on CCRF-CEM [1]; in assay [2]; in the assay with Vero) was above 100 µM each time. The half-maximal effective concentration (EC50) in assay [3] is above 100 µM.
Take `Nc1ncnc2c1ncn2C1C=CC(CO)C1` (stereo unspecified): the IC50 (in assay [2]; in the assay on CCRF-CEM [4]; with Vero) was above 100 µM each time. For the same molecule, the EC50 in assay [3] came to 2.4 µM. The EC90 in assay [3] was 11.7 µM.
For `Cc1cn([C@H]2C[C@H](N=[N+]=[N-])[C@@H](CO)O2)c(=O)[nH]c1=O` [ZIDOVUDINE], the IC50 in assay [2] is above 100 µM. The molecule also had an EC50 in assay [3] of 0.004 µM.

The IC50 is the concentration that inhibits the measured activity by half. Higher therefore signals weaker potency. What is called EC50 is the concentration giving half of the maximal effect. A higher EC50 goes with weaker potency. For orientation: EC90 means the concentration at which the effect reaches the 90% level. High values mean weaker potency, low ones greater potency.
